# From US20120190615A1, “METHODS AND COMPOSITIONS FOR INDUCING WEIGHT LOSS” (Sanford-Burnham Medical Research Institute, priority 2011, published 2012)
# “And” between values parts separate entries of the source, which are not always exact repeats. Identical values can stand only once.
# System: obese wild type B6 mice
# Assay: Reversal of diet-induced obesity, OX twice weekly for 4 wks after 17 weeks HFD (Example 13)
# Type: in vivo
# Experimental: To confirm that systemic OX therapy induces weight loss in obese mice, wild type B6 mice were fed a HFD for 17 weeks and treated either with OX (10 mg/kg) or PBS vehicle twice weekly for 4 wks (n=6 mice/group). […] The OX-injected group began losing body weight from week 1. At the end of the 4-week treatment regimen, the OX-injected population appeared considerably leaner than the vehicle-injected controls, and the former had lost about 10 g body weight, as shown in FIG. 29A. […] Enhancement of energy expenditure was not due to any increase in physical activity (FIG. 29C).
# To evaluate changes associated with weight loss, OX-treated and untreated mice were compared at autopsy. Untreated mice fed a high fat diet had developed fatty livers, which were visibly paler in color than those from OX-treated mice (FIG. 29E).
# [1] = end of 4-week treatment, OX 10 mg/kg twice weekly
substance,measurement,setting,value
"orexin-A (EPLPDCCRQKTCSCRLYELLHGAGNHAAGILTL) [OX, human orexin A, cat; No. 24470, Anaspec]",amount of visceral fat,4 weeks treatment,considerably decreased
same,food intake,between groups,did not differ significantly
same,lean mass or fluid content,between groups,not significantly different
same,"energy expended, more than the control group",calorimetric studies,17%
same,"oxygen consumed, more than the control group",calorimetric studies,13%
same,body weight lost,end of 4-week treatment,about 10 g
same,% body fat,[1],27% and 27 ± 1.4%
same,Fat mass,[1],7.9 ± 0.6
same,Lean mass,[1],20.4 ± 1.3
same,Lean mass fat mass ratio,[1],2.58 ± 0.2
same,Body weight,"end of 4-week treatment, OX 10 mg/kg twice weekly, in g (unit assumed)",29.2 ± 0.8
same,reduction of whole body fat mass,end of the study,55%
same,triglycerides within the liver,"high fat diet, at autopsy",91 ± 7 µmol/g
same,iBAT mitochondrial content/activity,"mitoTracker-stained iBAT sections, relative to controls",elevated mitochondrial content/activity
